Source: patent US20250163104A1, “MACROCYCLIC IMMUNOMODULATORS” (priority 2021, published 2025)
*1 amine or outer side, *2 acyl side, *3 side chain or, on linkers, in order; H or OH if unused. Where a SMILES comes first, the peptide text is derived from it. Bridges are numbered along the chain shown (N, C = ends). [ ]: non-standard residue; d: D form. The star is where a group is joined. ξ: configuration not given here. Phe(4-COOH) = N[C@@H](Cc1ccc(C(=O)O)cc1)C(=O)O; Bip = N[C@@H](Cc1ccc(-c2ccccc2)cc1)C(=O)O; X7 = CC(=N)NCCC[C@@H](N[*:1])C(=O)[*:2]; Phe(3-Me) = Cc1cccc(C[C@H](N)C(=O)O)c1; Val(3-OH) = CC(C)(O)[C@H](N)C(=O)O; aIle = CC[C@@H](C)[C@H](N)C(=O)O; 3Pal = N[C@@H](Cc1cccnc1)C(=O)O; 4Pal = N[C@@H](Cc1ccncc1)C(=O)O; 2Thi = N[C@@H](Cc1cccs1)C(=O)O; Cha = N[C@@H](CC1CCCCC1)C(=O)O; Ile(3ξ) = CCC(C)[C@H](N)C(=O)O; dCha = N[C@H](CC1CCCCC1)C(=O)O; Carboxymethyl = O=C(O)C*; Orn = NCCC[C@H](N)C(=O)O; Pra = C#CC[C@H](N)C(=O)O; Dab = NCC[C@H](N)C(=O)O; Dap = NC[C@H](N)C(=O)O; Propargyl = C#CC*

target: T1, human PD-1 / PD-L1-Ig binding on Jurkat cell line over-expressing human PD-1 (Jurkat-PD-1) (Homo sapiens, UniProt Q15116); test: Jurkat-PD-1 Cell Binding High-Content Screening Assay (CBA); type: cell-based; conditions: Jurkat-PD-1 cells, PE-labeled PD-L1-Ig 20 nM final; read-out: Jurkat HPD1_PDL1 IC50
T1 construct: expressed in transfected cells; host or cells: Jurkat
In short: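 Jurkat-hPD-1 cells in DMEM with 10% fetal calf serum receive test compound and are held at 37° C for 2 h. PE-labeled PD-L1-Ig is added at 20 nM final and left for 1 hour. Cells are then fixed and Hoechst-stained, and binding is measured by imaging.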

T1 sequence (Q15116 25-288): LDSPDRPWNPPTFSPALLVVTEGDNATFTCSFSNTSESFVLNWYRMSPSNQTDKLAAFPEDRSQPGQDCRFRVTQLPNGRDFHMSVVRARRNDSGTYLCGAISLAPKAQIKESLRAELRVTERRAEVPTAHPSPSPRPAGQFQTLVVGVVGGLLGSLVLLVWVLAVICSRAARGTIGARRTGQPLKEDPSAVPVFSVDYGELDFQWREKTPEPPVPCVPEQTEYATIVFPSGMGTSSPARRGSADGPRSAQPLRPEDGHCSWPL

IC50 [nM] | Structure (SMILES)
7.3 | C#CC[C@H](NC(=O)[C@H](CCN)NC(=O)[C@@H]1CSCC(=O)N[C@@H](CN)C(=O)N[C@@H](Cc2ccc(C(=O)O)cc2)C(=O)N[C@@H](CC(=O)O)C(=O)N[C@@H](Cc2cccc(C)c2)C(=O)N[C@@H](Cc2ccc(C(=O)O)cc2)C(=O)N[C@@H](Cc2ccc(-c3ccccc3)cc2)C(=O)N[C@@H](Cc2ccc(C(=O)O)cc2)C(=O)N[C@@H](CCCN)C(=O)N[C@H](CC(C)C)C(=O)N[C@@H](CCN)C(=O)N[C@@H](CC2CCCCC2)C(=O)N[C@@H](C(C)(C)O)C(=O)N[C@@H](CO)C(=O)N1)C(N)=O [Compound 1845] ({CH2CO}-[Dap][Phe(4-COOH)]D[Phe(3-Me)][Phe(4-COOH)][Bip][Phe(4-COOH)][Orn][dL][Dab][Cha][Val(3-OH)]SC[Dab][Pra]-NH2; thioether N-14)
20.9 | CC(C)C[C@@H]1NC(=O)[C@H](Cc2c[nH]c3ccccc23)NC(=O)[C@H](CC(=O)O)NC(=O)[C@H](Cc2ccc(C(=O)O)cc2)NC(=O)[C@H](Cc2ccc(OCC(=O)O)cc2)NC(=O)CSC[C@@H](C(=O)NCC(N)=O)NC(=O)[C@H](CO)NC(=O)[C@H](C(C)C)NC(=O)[C@H](CC2CCCCC2)NC(=O)[C@H](CC(N)=O)NC(=O)[C@@H](CC(C)C)NC(=O)[C@H](CCCN)NC(=O)[C@H](C(C)C)NC(=O)[C@H](Cc2ccc(-c3ccccc3)cc2)NC1=O [Compound 1335] ({CH2CO}-Y(Carboxymethyl)[Phe(4-COOH)]DWL[Bip]V[Orn][dL]N[Cha]VSCG-NH2; thioether N-14)
17.2 | C#CCOc1ccc(C[C@@H]2NC(=O)[C@H](CCN)NC(=O)CSC[C@@H](C(=O)N[C@@H](CCN)C(N)=O)NC(=O)[C@H](CCC(=O)O)NC(=O)[C@H](C(C)C)NC(=O)[C@H](CC3CCCCC3)NC(=O)[C@H](CCN)NC(=O)[C@@H](CC(C)C)NC(=O)[C@H](CCCN)NC(=O)[C@H](Cc3ccc(OCC(=O)O)cc3)NC(=O)[C@H](Cc3ccc(-c4ccccc4)cc3)NC(=O)[C@H](Cc3ccc(OCC(=O)O)cc3)NC(=O)[C@H](Cc3cccc(C)c3)NC(=O)[C@H](CC(=O)O)NC2=O)cc1 [Compound 1820] ({CH2CO}-[Dab]Y(Propargyl)D[Phe(3-Me)]Y(Carboxymethyl)[Bip]Y(Carboxymethyl)[Orn][dL][Dab][Cha]VEC[Dab]-NH2; thioether N-14)
38.8 | CC(C)C[C@@H]1NC(=O)[C@H](Cc2c[nH]c3ccccc23)NC(=O)[C@H](CC(=O)O)NC(=O)[C@H](Cc2ccc(O)cc2)NC(=O)[C@H](Cc2ccccc2)NC(=O)CSC[C@@H](C(=O)NCC(N)=O)NC(=O)[C@H]([C@@H](C)O)NC(=O)[C@H](C(C)C)NC(=O)[C@H](CC(C)C)NC(=O)[C@H](CC(N)=O)NC(=O)[C@@H](CC(C)C)NC(=O)[C@H](CN)NC(=O)[C@H](C(C)C)NC(=O)[C@H](Cc2ccc(-c3ccccc3)cc2)NC1=O [Compound 1070] ({CH2CO}-FYDWL[Bip]V[Dap][dL]NLVTCG-NH2; thioether N-14)
15 | CC[C@H](C)[C@@H]1NC(=O)[C@H](Cc2ccc(-c3ccccc3)cc2)NC(=O)[C@H](C(C)C)NC(=O)[C@H](Cc2c[nH]c3ccccc23)NC(=O)[C@H](CC(=O)O)NC(=O)[C@H](Cc2ccncc2)NC(=O)[C@H](CN)NC(=O)CSC[C@@H](C(=O)N[C@@H](C)C(N)=O)NC(=O)[C@H]([C@@H](C)O)NC(=O)[C@H](C(C)C)NC(=O)[C@H](CC(C)C)NC(=O)[C@H](CCN)NC(=O)[C@@H](CC(C)C)NC(=O)[C@H](CCCN)NC1=O [Compound 1238] ({CH2CO}-[Dap][4Pal]DWV[Bip]I[Orn][dL][Dab]LVTCA-NH2; thioether N-14)
132 | CC(C)C[C@@H]1NC(=O)[C@H](Cc2c[nH]c3ccccc23)NC(=O)[C@H](CC(=O)O)NC(=O)[C@H](Cc2ccc(O)cc2)NC(=O)[C@H](Cc2ccccc2)NC(=O)CSC[C@@H](C(=O)N[C@@H](C)C(N)=O)NC(=O)[C@H]([C@@H](C)O)NC(=O)[C@H](C(C)C)NC(=O)[C@H](CC(C)C)NC(=O)[C@H](CCN)NC(=O)[C@@H](C)NC(=O)[C@H](CN)NC(=O)[C@H](C(C)C)NC(=O)[C@H](Cc2ccc(-c3ccccc3)cc2)NC1=O [Compound 1097] ({CH2CO}-FYDWL[Bip]V[Dap][dA][Dab]LVTCA-NH2; thioether N-14)
19.3 | CC[C@@H](C)[C@@H]1NC(=O)[C@H](Cc2ccc(-c3ccccc3)cc2)NC(=O)[C@H](C(C)C)NC(=O)[C@H](Cc2c[nH]c3ccccc23)NC(=O)[C@H](CC(=O)O)NC(=O)[C@H](Cc2ccc(OCC(=O)O)cc2)NC(=O)[C@H](CN)NC(=O)CSC[C@@H](C(=O)N[C@@H](C)C(N)=O)NC(=O)[C@H]([C@@H](C)O)NC(=O)[C@H](C(C)C)NC(=O)[C@H](CC2CCCCC2)NC(=O)[C@H](CCN)NC(=O)[C@@H](CC2CCCCC2)NC(=O)[C@H](CCCN)NC1=O [Compound 1627] ({CH2CO}-[Dap]Y(Carboxymethyl)DWV[Bip][aIle][Orn][dCha][Dab][Cha]VTCA-NH2; thioether N-14)
16.1 | CCC(C)[C@@H]1NC(=O)[C@H](Cc2ccc(-c3ccccc3)cc2)NC(=O)[C@H](C(C)C)NC(=O)[C@H](Cc2c[nH]c3ccccc23)NC(=O)[C@H](CC(=O)O)NC(=O)[C@H](Cc2cccnc2)NC(=O)[C@H](CC(N)=O)NC(=O)CSC[C@@H](C(=O)N[C@@H](C)C(N)=O)NC(=O)[C@H]([C@@H](C)O)NC(=O)[C@H](C(C)C)NC(=O)[C@H](CC2CCCCC2)NC(=O)[C@H](CCN)NC(=O)[C@@H](CC(C)C)NC(=O)[C@H](CCCN)NC1=O (stereo partly drawn) [Compound 2228] ({CH2CO}-N[3Pal]DWV[Bip][Ile(3ξ)][Orn][dL][Dab][Cha]VTCA-NH2; thioether N-14)
14 | CC(C)C[C@H]1NC(=O)[C@H](CCCN)NC(=O)[C@H](CCCN)NC(=O)[C@H](Cc2ccc(-c3ccccc3)cc2)NC(=O)[C@H](C(C)C)NC(=O)[C@H](Cc2c[nH]c3ccccc23)NC(=O)[C@H](CC(=O)O)NC(=O)[C@H](Cc2ccc(C(=O)O)cc2)NC(=O)[C@H](Cc2ccc(OCC(=O)O)cc2)NC(=O)CSC[C@@H](C(=O)N[C@@H](C)C(N)=O)NC(=O)[C@H]([C@@H](C)O)NC(=O)[C@H](C(C)C)NC(=O)[C@H](CC2CCCCC2)NC(=O)[C@H](CCN)NC1=O [Compound 1382] ({CH2CO}-Y(Carboxymethyl)[Phe(4-COOH)]DWV[Bip][Orn][Orn][dL][Dab][Cha]VTCA-NH2; thioether N-14)
10.1 | CC(=N)NCCC[C@@H](NC(=O)[C@@H]1CSCC(=O)N[C@@H](Cc2ccc(OCC(=O)O)cc2)C(=O)N[C@@H](Cc2ccc(C(=O)O)cc2)C(=O)N[C@@H](CC(=O)O)C(=O)N[C@@H](Cc2cccc(C)c2)C(=O)N[C@@H](C(C)C)C(=O)N[C@@H](Cc2ccc(-c3ccccc3)cc2)C(=O)N[C@@H](C(C)C)C(=O)N[C@@H](CCN)C(=O)N[C@H](CC(C)C)C(=O)N[C@@H](CCN)C(=O)N[C@@H](CC2CCCCC2)C(=O)N[C@@H](C(C)C)C(=O)N[C@@H](CCCN)C(=O)N1)C(=O)O [Compound 2588] ({CH2CO}-Y(Carboxymethyl)[Phe(4-COOH)]D[Phe(3-Me)]V[Bip]V[Dab][dL][Dab][Cha]V[Orn]C[X7]-OH; thioether N-14)
29.6 | Cc1cccc(C[C@@H]2NC(=O)[C@H](CC(=O)O)NC(=O)[C@H](Cc3ccc(O)cc3)NC(=O)[C@H](Cc3cnc[nH]3)NC(=O)CSC[C@@H](C(=O)N[C@H](C)C(N)=O)NC(=O)[C@H](CO)NC(=O)[C@H](C(C)(C)O)NC(=O)[C@H](CC3CCCCC3)NC(=O)[C@H](CCN)NC(=O)[C@@H](CC(C)C)NC(=O)[C@H](CCCN)NC(=O)[C@H](Cc3ccc(OCC(=O)O)cc3)NC(=O)[C@H](Cc3ccc(-c4ccccc4)cc3)NC(=O)[C@H](Cc3ccc(OCC(=O)O)cc3)NC2=O)c1 [Compound 2652] ({CH2CO}-HYD[Phe(3-Me)]Y(Carboxymethyl)[Bip]Y(Carboxymethyl)[Orn][dL][Dab][Cha][Val(3-OH)]SC[dA]-NH2; thioether N-14)
6.3 | Cc1cccc(C[C@@H]2NC(=O)[C@H](CC(=O)O)NC(=O)[C@H](Cc3ccc(OCC(=O)O)cc3)NC(=O)[C@H](Cc3cccs3)NC(=O)CSC[C@@H](C(=O)N[C@@H](CCN)C(N)=O)NC(=O)[C@H]([C@@H](C)O)NC(=O)[C@H](C(C)(C)O)NC(=O)[C@H](CC3CCCCC3)NC(=O)[C@H](CCN)NC(=O)[C@@H](CC(C)C)NC(=O)[C@H](CCCN)NC(=O)[C@H](Cc3ccc(OCC(=O)O)cc3)NC(=O)[C@H](Cc3ccc(-c4ccccc4)cc3)NC(=O)[C@H](Cc3ccc(OCC(=O)O)cc3)NC2=O)c1 [Compound 2067] ({CH2CO}-[2Thi]Y(Carboxymethyl)D[Phe(3-Me)]Y(Carboxymethyl)[Bip]Y(Carboxymethyl)[Orn][dL][Dab][Cha][Val(3-OH)]TC[Dab]-NH2; thioether N-14)
71.7 | CC[C@H](C)[C@@H]1NC(=O)[C@H](Cc2ccc(-c3ccccc3)cc2)NC(=O)[C@H](C(C)C)NC(=O)[C@H](Cc2c[nH]c3ccccc23)NC(=O)[C@H](CC(=O)O)NC(=O)[C@H](Cc2ccc(OCC(=O)O)cc2)NC(=O)[C@H](Cc2ccc(OCC(=O)O)cc2)NC(=O)CSC[C@@H](C(=O)N[C@@H](C)C(N)=O)NC(=O)[C@H]([C@@H](C)O)NC(=O)[C@H](C(C)C)NC(=O)[C@H](Cc2ccc(O)cc2)NC(=O)[C@H](CCN)NC(=O)[C@@H](CC(C)C)NC(=O)[C@H](CCCN)NC1=O [Compound 1680] ({CH2CO}-Y(Carboxymethyl)Y(Carboxymethyl)DWV[Bip]I[Orn][dL][Dab]YVTCA-NH2; thioether N-14)
99.6 | CC(C)C[C@@H]1NC(=O)[C@H](CCCNC(=N)N)NC(=O)[C@@H](CC(C)C)NC(=O)[C@H](CN)NC(=O)[C@H](CCCNC(=N)N)NC(=O)[C@H](Cc2ccc(-c3ccccc3)cc2)NC(=O)[C@H](C(C)C)NC(=O)[C@H](Cc2c[nH]c3ccccc23)NC(=O)[C@H](CC(=O)O)NC(=O)[C@H](Cc2ccc(O)cc2)NC(=O)[C@H](CC(N)=O)NC(=O)CSC[C@@H](C(=O)N[C@@H](C)C(N)=O)NC(=O)[C@H]([C@@H](C)O)NC(=O)[C@H](C(C)C)NC1=O [Compound 1010] ({CH2CO}-NYDWV[Bip]R[Dap][dL]RLVTCA-NH2; thioether N-14)
